Entries after “also recorded” stand apart in the source; their conditions may differ.
Assays:
TcdB holotoxin [1] = type: cell-based, human
TcdB CPD = TcdB CPD (Clostridioides difficile, UniProt P18177); type: biochemical, Clostridium difficile; settings: autocleavage assay
TcdB holotoxin [2] = type: cell-based, human; remark: listed apart in the source

TcdB CPD, sequence (P18177 1-804 limits assumed): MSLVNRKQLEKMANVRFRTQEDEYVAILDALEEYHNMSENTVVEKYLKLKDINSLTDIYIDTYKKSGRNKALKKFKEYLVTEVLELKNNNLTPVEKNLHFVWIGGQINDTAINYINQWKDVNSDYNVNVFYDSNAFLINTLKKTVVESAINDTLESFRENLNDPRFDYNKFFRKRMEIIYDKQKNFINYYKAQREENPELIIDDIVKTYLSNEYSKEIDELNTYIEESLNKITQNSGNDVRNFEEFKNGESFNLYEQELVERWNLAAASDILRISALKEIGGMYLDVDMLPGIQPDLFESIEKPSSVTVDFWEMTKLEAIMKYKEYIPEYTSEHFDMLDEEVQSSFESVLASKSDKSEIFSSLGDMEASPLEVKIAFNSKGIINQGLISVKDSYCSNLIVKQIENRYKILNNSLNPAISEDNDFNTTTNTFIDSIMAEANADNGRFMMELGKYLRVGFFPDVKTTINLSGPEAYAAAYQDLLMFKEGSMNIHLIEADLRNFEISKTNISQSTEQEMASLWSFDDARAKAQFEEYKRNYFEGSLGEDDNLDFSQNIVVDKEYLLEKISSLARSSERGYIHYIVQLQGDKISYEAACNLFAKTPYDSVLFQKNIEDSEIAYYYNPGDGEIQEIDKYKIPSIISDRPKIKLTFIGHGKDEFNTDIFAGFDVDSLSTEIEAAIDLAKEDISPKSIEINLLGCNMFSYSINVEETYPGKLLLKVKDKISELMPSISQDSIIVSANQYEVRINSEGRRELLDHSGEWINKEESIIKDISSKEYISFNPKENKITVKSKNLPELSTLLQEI

## JPM-OEt
TcdB holotoxin [1]
  effect on Rac1 glucosylation by holotoxin: no effect on toxin function
TcdB CPD
  inhibition of CPD activity: poorly inhibit CPD activity
TcdB holotoxin [2]
  effect on holotoxin-mediated cell rounding: failed to inhibit toxin function; also recorded: no effect on toxin function

From paper PMC3005307 (Chemistry & biology, 2010)
